# US20100104511A1, “METHODS AND COMPOSITIONS USING CHELATOR-ANTIBODY CONJUGATES” (priority 2006, published 2010)
# Tests used:
# Assay in all cases: Apoptosis by Annexin-V-Fluos staining and flow cytometry
# [1] = tested on: H3255 cells; conditions: H3255, 10 μM, 72 hours
# Protocol: (§1) In vitro Analysis of Apoptosis. […] The cells were washed in PBS. Cell suspension was then stained with Annexin-V-Fluos (Roche Diagnostics, Mannheim, Germany) for 30 minutes before labeled cells were quantitated by flow cytometry (EpicsXL; Beckman Coulter, MarmiMiami, Fla., USA).
# [2] = tested on: H441 cells; conditions: H441, 10 μM, 72 hours
# Protocol: as §1
# [3] = tested on: MDA-MB-231 cells; conditions: MDA-MB-231, 10 μM, 72 hours
# Protocol: as §1
compound,measurement,setting,value
COc1cc2ncnc(Nc3ccc(F)c(Cl)c3)c2cc1OCCCN1CCOCC1 [gefitinib],apoptosis percentage after deducting DMSO control,[1],25.86%
same,apoptosis percentage after deducting DMSO control,[2],8.13%
same,apoptosis percentage after deducting DMSO control,[3],6.92%
